Measured values taken from US6444705B1, “Angiogenesis inhibitors” (Santen Pharmaceutical Co., Ltd., priority 1998, dated 2002).
Where a name gives a salt, the structure may show the parent alone.

System: chick chorioallantonic membrane
Test: Inhibitory effect on angiogenesis in the chick chorioallantonic membrane
Type: in vivo, chick (white leghorn)
Conditions: pellet on embryo chorioallantonic membrane, cultured two days, rate = positive eggs/tested eggs x100
Experimental: It was reported that effects of drugs on angiogenesis were evaluated using fertilized egg embryo chorioallantonic membrane as an in vivo angiogenesis evaluation model (Biochem. Biophys. Res. Commun., 174, 1070-1076 (1991)). Accordingly, effects of a cysteine derivative on the angiogenesis evaluation model were studied according to the assay described in the above-mentioned literature.
1. Methyl cellulose (0.1 g) is dissolved in sterile purified water (10 ml) to prepare a 1% solution of methyl cellulose.
2. A test compound is dissolved in ethanol/sterile purified water (1/1) to prepare a 24 μmol/ml solution.
3. The 24 μmol/ml solution of the test compound is diluted with ethanol/sterile purified water (1/1) to prepare 12 μmol/ml and 6 μmol/ml solutions of the test compound.
4. The solution (0.20 ml) of the test compound having each concentration is mixed with the 1% solution (0.20 ml) of methyl cellulose to prepare a mixed solution of the test compound.
5. […]
Hatched eggs (white leghorn) of three days old after fertilization were put up by threes on a culture plate having six wells with their air phases upward and incubated in a CO2 incubator for 20 minutes (temperature: 37° C., humidity: 95%, CO2 concentration: 5%). […] Hatched eggs in which angiogenesis was not observed were defined as positive, and inhibition rates of angiogenesis were calculated by the following equation.

## CC(C)(CS)C(=O)NC(CS)C(=O)NCCCCCCN (stereo in doubt) [N^1-(6-aminohexyl)-N^2-(2,2-dimethyl-3-mercaptopropionyl)-L-cysteinamide hydrochloride]
Dose 0.06 μmol/egg
  Inhibition rate of angiogenesis (%): 80%
Dose 0.12 μmol/egg
  Inhibition rate of angiogenesis (%): 93%
